Results taken from US11147784B2, “Dietary supplements and composition for treating cancer” (The Trustees of Princeton University, priority 2013, dated 2021).
Like-named read-outs stand apart in the source and are kept apart here.

Columns and labels:
[1] = system: HEK293T cells; assay: U13C tracer labeling of the one-carbon unit pool; assay type: cell-based; details: 48 h, ADP purine ring and dTTP methyl labeling
Procedure: In order to determine contribution of the single carbon, cells were cultured with media containing [U ^13C] serine for 48 h, washed three times with cold PBS to remove extracellular serine, extracted, and the intracellular labeling pattern analyzed by LC-MS for ATP (representing purines; there is no labeling of ribose-phosphate based on LC-MS measurements), glycine and serine. See e.g., Fan et al., Nature 510: 298-302, 2014.
Purine ring labeling is indicative of formyl-THF labeling.

[2] = system: NADPH/NADP+ ratio; assay: Cellular effect of anti-folate therapy on the NADPH/NADP+ ratio; assay type: cell-based; details: methotrexate 500 nM
[3] = system: ΔMTHFD2 cells; details: addition of formate to ΔMTHFD2 cells (from HEK293T)
Procedure: AICAR in wild type HEK293T cells and cells lacking a key enzyme producing formyl-THF, MTHFD2, was measured by LC-MS. See e.g., Fan et al., Nature 510: 298-302, 2014. […] The ΔMTHFD2 cells lacking MTHFD2 were produced from HEK293T cells by CRISPR (clustered regularly interspaced short palindromic repeat)-mediated knockout.

[4] = system: HEK293 cells; details: DMEM lacking serine, 3 days
Description: (§1) It is hypothesized that high glycine is driving the backwards SHMT reaction while also impairing the forward reaction by product inhibition.

[5] = system: HEK293 cell; details: 3 days
Description: as §1

[6] = system: tumor growth; details: patients; current best therapy plus glycine supplementation therapy
Description: Individuals providing informed consent to enter the trial are randomized to the current best therapy or current best therapy plus glycine supplementation therapy arms.
The glycine supplementation therapy arm involves providing increased total intake of glycine and/or decreased total intake of serine so as to achieve an increased ratio of glycine to serine intake. The clinical course of patients enrolled in the trial is monitored with respect to endpoints selected based on the disease state, e.g., for stage IV lung cancer, changes in tumor volume, progression-free survival, and overall survival, as well as side effects of the treatment regimen.

[7] = system: HEK293T cells
Procedure: To measure cellular folates, media was removed from HEK293T cells, and replaced with 50:50 methanol:water with 25 mM ammonium acetate and 1% sodium ascorbate, at −20° C. […] After 15 min on ice, the cells were scraped from the dish to further enhance extraction, and the cell-liquid mixture was centrifuged to remove particulate matter. The particulate matter was re-extracted with the same solvent for 15 minutes, and the 2 extracts were combined. The resulting combined extract was treated with rat serum to hydrolyze the polyglutamate chains of folate polyglutamates. […] The resulting mixture was passed through a phenyl solid phase extraction column which removes proteins, highly soluble metabolites, salts and further concentrates the folate species, which were then analyzed by in high resolution LC-MS.

[8] = system: HEK293T cells; details: absence of exogenous serine, 0.4 mM glycine, or addition of 2 mM or 5 mM glycine
Procedure: Cell growth was measured in an incubator containing 5% CO2 at 37° C.

[9] = system: HEK293T cells; details: 24 h, addition of glycine (5 mM)
Procedure: (§2) Metabolites were then harvested by quickly aspirating media, washing with PBS buffer, and immediately adding −80° C. 80:20 methanol: water extraction solution at −80° C. Following quenching, the tissue culture dish was incubated at −80° C. for 15 min, and then the cells were scraped from the plate. After centrifuging the cell suspension at 5300×g for 10 min, the supernatant was kept and the debris was re-extracted with −80° C. 80:20 methanol:water. The resulting suspension was centrifuged again and the supernatant was combined with first supernatant. […] LC separation was by reversed-phase ion-pairing chromatography with tributylamine as the ion-pairing agent. MS analysis was on a stand-alone orbitrap mass analyzer (Thermo Scientific) operated in negative ion mode and scanning from m/z 85-1000 at 1 Hz at 100,000 resolution. Data were analyzed using the MAVEN software suite. All observed LC-MS peaks were in analyzed, including those of roughly 100 known water-soluble metabolites.
HEK293T cells were cultured in the conditions described in Example 2. In addition to measuring metabolite concentrations, important metabolite ratios, e.g., NADH/NAD+, NADPH/NADP+, ATP/ADP, were calculated.

[10] = system: HCT116 cells; details: HCT116 xenograft in CD-1-Foxn1nu female mice; high (2×-5× normal) glycine diets
Procedure: Approximately 3×10^6 HCT116 cells (or other tumor-forming transformed cells) are injected on the flank of approximately 8 week CD-1-Foxn1nu female mice (Charles River) or similar rodents. To compare cell lines or gather data more rapidly, different cell lines can be ejected on the 2 flanks (right and left) of each mouse. […] Numbers of mice are selected in order to obtain appropriate statistical power, with 6-20 mice per group typical.

[11] = system: HEK293T cells; details: 24 h, +5 mM glycine, DMEM with or without serine
Procedure: as §2

For `N[C@@H](CO)C(=O)O` [serine, reference compound], the “contribution to the cellular one-carbon unit pool” value [1] was “contributes to the cellular one-carbon unit pool”.

In the case of `CN(Cc1cnc2nc(N)nc(N)c2n1)c1ccc(C(=O)N[C@@H](CCC(=O)O)C(=O)O)cc1` [methotrexate], the “NADPH/NADP+ ratio” value [2] is reported as “decrease”.

`O=CO` [formate] was tested, and the AICAR accumulation [3] was “eliminates the AICAR accumulation”.

`NCC(=O)O` [glycine] was tested, and the “contribution to the cellular one-carbon unit pool” value [1] was “does not contribute one carbon units”, the “Relative NADPH/NADP+” value ([4]; 1× glycine, complete DMEM approximately 1) was “approximately 0.7” and the “Relative NADPH/NADP+” value ([4]; addition of 12× glycine) was “approximately 0.45”. The “decrease in final cell number relative to growth in complete DMEM” value ([5]; DMEM lacking serine, 1× glycine) was “approximately 30%”, the “decrease in final cell number relative to growth in complete DMEM” value ([5]; serine removal and addition of 12× glycine) was “approximately 70%” and the “tumor growth and tumor progression” value [6] was “will reduce tumor growth and slow tumor progression”. The AICAR ([7]; glycine addition) was “rise”, the “Formyl-THF and methyl-THF levels” value ([7]; presence of glycine when serine is absent, 1× and 10× relative to standard DMEM) was “decrease” and the transformed cell growth [8] was “inhibits transformed cell growth”. For the same molecule, the ATP/ADP ratio [9] was “significantly decreased”, the “decrease in the NADPH/NADP+ ratio” value [9] was “approximately 2 fold” and the “tumor growth and tumor progression” value [10] was “will reduce tumor growth and slow tumor progression”. For the same molecule, the intracellular serine levels [11] was “enhanced”.
